Measured values: patent US10407409B2, “6-(5-hydroxy-1H-pyrazol-1-yl)nicotinamide inhibitors of PHD” (Takeda Pharmaceutical Company Limited, priority 2013, dated 2019)

Experiments:
[1] = tested on: HIF1a protein in H9c2 rat cardiomyocytes; test: Cell-based HIF-alpha stabilization assay (inhibition of PHD in cells); conditions: Rattus norvegicus, H9c2, 24 h, 24 hrs compound incubation, HIF1a protein by ELISA, read-out: Inhibition of PHD in cells (pEC50) (converted)
Procedure, shortened: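 Rat H9c2 cardiomyocytes, cultured 24 h, were treated 24 h with an 11-point serial dilution of compound. HIF1a in whole-cell lysates was quantified by ELISA as % of the maximal desferrioxamine response. EC50 came from curve fitting; EC50pos is the concentration reaching 50% of the desferrioxamine maximum.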

[2] = target: PHD2 enzyme (residues 181-417) (Homo sapiens (Human), UniProt Q9GZT9); test: Inhibition of PHD enzyme (LC/MS peptide hydroxylation assay); type: biochemical; conditions: PHD2 (residues 181-417) 5 nM, 60 min pre-incubation; -log(IC50), IC50 molar
Sequence of PHD2 enzyme (residues 181-417) (Q9GZT9 181-417): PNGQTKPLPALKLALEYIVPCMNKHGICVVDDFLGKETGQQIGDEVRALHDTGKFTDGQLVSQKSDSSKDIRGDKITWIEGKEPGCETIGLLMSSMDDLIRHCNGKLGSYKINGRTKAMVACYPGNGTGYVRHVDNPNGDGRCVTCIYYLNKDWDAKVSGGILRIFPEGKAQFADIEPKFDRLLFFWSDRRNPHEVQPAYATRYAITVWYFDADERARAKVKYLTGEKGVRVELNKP
Procedure, shortened: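 PHD2 (5 nM final) preincubated with inhibitor 60 min at RT in 50 mM HEPES, 50 mM KCl, 0.5 mM TCEP, 2 uM FeCl2, 0.1 mg/ml BSA, pH 7.3. Reaction started with biotin-peptide (1 uM), 2-oxoglutarate (2 uM), ascorbate (1 mM), quenched at 60 min; hydroxylated product by LC/MS, reported as pIC50.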

Structure (SMILES)	PHD Inhibition (pIC50) [2]	EC50 [1]
Cc1c(C#N)ccc(-c2cnn(-c3ccc(C(=O)N4CCN(C5CC5)CC4)cn3)c2O)c1C [Example 310, 4-(1-(5-(4-cyclopropylpiperazine-1-carbonyl)pyridin-2-yl)-5-hydroxy-1H-pyrazol-4-yl)-2,3-dimethylbenzonitrile]	8.13	3160 nM
Cc1cc(C#N)ccc1-c1cnn(-c2ccc(C(=O)N3CCN(CC(F)F)CC3)cn2)c1O [Example 311, 4-(1-(5-(4-(2,2-difluoroethyl)piperazine-1-carbonyl)pyridin-2-yl)-5-hydroxy-1H-pyrazol-4-yl)-3-methylbenzonitrile]	8.51	1480 nM
Cc1cc(C#N)ccc1-c1cnn(-c2ccc(C(=O)N3CCN(CC(F)(F)F)CC3)cn2)c1O [Example 312, 4-(5-hydroxy-1-(5-(4-(2,2,2-trifluoroethyl)piperazine-1-carbonyl)pyridin-2-yl)-1H-pyrazol-4-yl)-3-methylbenzonitrile]	8.50	1820 nM
Cc1cc(C#N)ccc1-c1cnn(-c2ccc(C(=O)N(C)CCCN(C)C)cn2)c1O [Example 313, 6-(4-(4-cyano-2-methylphenyl)-5-hydroxy-1H-pyrazol-1-yl)-N-(3-(dimethylamino)propyl)-N-methylnicotinamide]	7.59	1120 nM
Cc1cc(C#N)ccc1-c1cnn(-c2ccc(C(=O)N3CCCC(N4CCCCC4)C3)cn2)c1O (stereo not drawn) [Example 314, 4-(1-(5-([1,3′-bipiperidine]-1′-carbonyl)pyridin-2-yl)-5-hydroxy-1H-pyrazol-4-yl)-3-methylbenzonitrile]	7.90	550 nM
Cc1cc(C#N)ccc1-c1cnn(-c2ccc(C(=O)N3CCC[C@@H](N(C)C)C3)cn2)c1O [Example 315, (R)-4-(1-(5-(3-(dimethylamino)piperidine-1-carbonyl)pyridin-2-yl)-5-hydroxy-1H-pyrazol-4-yl)-3-methylbenzonitrile]	8.09	562 nM
COC1CCN(C(=O)c2ccc(-n3ncc(-c4ccc(C#N)c(F)c4C)c3O)nc2)CC1 [Example 316, 2-fluoro-4-(5-hydroxy-1-(5-(4-methoxypiperidine-1-carbonyl)pyridin-2-yl)-1H-pyrazol-4-yl)-3-methylbenzonitrile]	8.31	1290 nM
Cc1c(-c2cnn(-c3ccc(C(=O)N4CC[C@@H](N(C)C)C4)cn3)c2O)ccc(C#N)c1F [Example 317, (R)-4-(1-(5-(3-(dimethylamino)pyrrolidine-1-carbonyl)pyridin-2-yl)-5-hydroxy-1H-pyrazol-4-yl)-2-fluoro-3-methylbenzonitrile]	8.31	676 nM
Cc1c(-c2cnn(-c3ccc(C(=O)N4CC[C@H](N(C)C)C4)cn3)c2O)ccc(C#N)c1F [Example 318, (S)-4-(1-(5-(3-(dimethylamino)pyrrolidine-1-carbonyl)pyridin-2-yl)-5-hydroxy-1H-pyrazol-4-yl)-2-fluoro-3-methylbenzonitrile]	8.35	708 nM
Cc1c(-c2cnn(-c3ccc(C(=O)N4CCC[C@@H](N(C)C)C4)cn3)c2O)ccc(C#N)c1F [Example 319, (R)-4-(1-(5-(3-(dimethylamino)piperidine-1-carbonyl)pyridin-2-yl)-5-hydroxy-1H-pyrazol-4-yl)-2-fluoro-3-methylbenzonitrile]	8.17	537 nM
Cc1c(-c2cnn(-c3ccc(C(=O)N4CCC[C@H](N(C)C)C4)cn3)c2O)ccc(C#N)c1F [Example 320, (S)-4-(1-(5-(3-(dimethylamino)piperidine-1-carbonyl)pyridin-2-yl)-5-hydroxy-1H-pyrazol-4-yl)-2-fluoro-3-methylbenzonitrile]	8.17	741 nM
Cc1c(-c2cnn(-c3ccc(C(=O)N4CC(N(C)C)C4)cn3)c2O)ccc(C#N)c1F [Example 321, 4-(1-(5-(3-(dimethylamino)azetidine-1-carbonyl)pyridin-2-yl)-5-hydroxy-1H-pyrazol-4-yl)-2-fluoro-3-methylbenzonitrile]	8.40	589 nM
Cc1c(-c2cnn(-c3ccc(C(=O)N4CCN(C)CC4)cn3)c2O)ccc(C#N)c1F [Example 322, 2-fluoro-4-(5-hydroxy-1-(5-(4-methylpiperazine-1-carbonyl)pyridin-2-yl)-1H-pyrazol-4-yl)-3-methylbenzonitrile]	8.26	933 nM
Cc1c(-c2cnn(-c3ccc(C(=O)N4CCCN(C5CC5)CC4)cn3)c2O)ccc(C#N)c1F [Example 323, 4-(1-(5-(4-cyclopropyl-1,4-diazepane-1-carbonyl)pyridin-2-yl)-5-hydroxy-1H-pyrazol-4-yl)-2-fluoro-3-methylbenzonitrile]	8.33	1820 nM

Now from value to compound, other results behind:

PHD Inhibition (pIC50) [2]	Structure (SMILES)	EC50 [1]
8.54	Cc1c(-c2cnn(-c3ccc(C(=O)N4CCN(C)C5(CC5)C4)cn3)c2O)ccc(C#N)c1F [Example 324, 2-fluoro-4-(5-hydroxy-1-(5-(4-methyl-4,7-diazaspiro[2.5]octane-7-carbonyl)pyridin-2-yl)-1H-pyrazol-4-yl)-3-methylbenzonitrile]	832 nM
8.44	Cc1c(-c2cnn(-c3ccc(C(=O)N4CCCC4)cn3)c2O)ccc(C#N)c1F [Example 325, 2-fluoro-4-(5-hydroxy-1-(5-(pyrrolidine-1-carbonyl)pyridin-2-yl)-1H-pyrazol-4-yl)-3-methylbenzonitrile]	977 nM
8.33	COCCCN(C)C(=O)c1ccc(-n2ncc(-c3ccc(C#N)c(F)c3C)c2O)nc1 [Example 326, 6-(4-(4-cyano-3-fluoro-2-methylphenyl)-5-hydroxy-1H-pyrazol-1-yl)-N-(3-methoxypropyl)-N-methylnicotinamide]	490 nM
8.47	Cc1c(-c2cnn(-c3ccc(C(=O)N4CCOCC4)cn3)c2O)ccc(C#N)c1F [Example 327, 2-fluoro-4-(5-hydroxy-1-(5-(morpholine-4-carbonyl)pyridin-2-yl)-1H-pyrazol-4-yl)-3-methylbenzonitrile]	589 nM
8.39	CCN1CCN(C(=O)c2ccc(-n3ncc(-c4ccc(C#N)c(F)c4C)c3O)nc2)C[C@@H]1C [Example 328, (S)-4-(1-(5-(4-ethyl-3-methylpiperazine-1-carbonyl)pyridin-2-yl)-5-hydroxy-1H-pyrazol-4-yl)-2-fluoro-3-methylbenzonitrile]	309 nM
8.50	Cc1c(-c2cnn(-c3ccc(C(=O)N4CCN(C)[C@@H](C)C4)cn3)c2O)ccc(C#N)c1F [Example 329, (S)-4-(1-(5-(3,4-dimethylpiperazine-1-carbonyl)pyridin-2-yl)-5-hydroxy-1H-pyrazol-4-yl)-2-fluoro-3-methylbenzonitrile]	331 nM
8.34	CCN1CCN(C(=O)c2ccc(-n3ncc(-c4ccc(C#N)c(F)c4C)c3O)nc2)[C@H](C)C1 [Example 330, (R)-4-(1-(5-(4-ethyl-2-methylpiperazine-1-carbonyl)pyridin-2-yl)-5-hydroxy-1H-pyrazol-4-yl)-2-fluoro-3-methylbenzonitrile]	407 nM
8.33	Cc1c(-c2cnn(-c3ccc(C(=O)N4CCC[C@@H](N(C)C5CC5)C4)cn3)c2O)ccc(C#N)c1F [Example 331, (R)-4-(1-(5-(3-(cyclopropyl(methyl)amino)piperidine-1-carbonyl)pyridin-2-yl)-5-hydroxy-1H-pyrazol-4-yl)-2-fluoro-3-methylbenzonitrile]	813 nM
8.47	Cc1c(-c2cnn(-c3ccc(C(=O)N4CCC[C@H](N(C)CC(F)(F)F)C4)cn3)c2O)ccc(C#N)c1F [Example 332, (S)-2-fluoro-4-(5-hydroxy-1-(5-(3-(methyl(2,2,2-trifluoroethyl)amino)piperidine-1-carbonyl)pyridin-2-yl)-1H-pyrazol-4-yl)-3-methylbenzonitrile]	759 nM
8.55	Cc1c(-c2cnn(-c3ccc(C(=O)N4CCC[C@H](N(C)CC(F)F)C4)cn3)c2O)ccc(C#N)c1F [Example 333, (S)-4-(1-(5-(3-((2,2-difluoroethyl)(methyl)amino)piperidine-1-carbonyl)pyridin-2-yl)-5-hydroxy-1H-pyrazol-4-yl)-2-fluoro-3-methylbenzonitrile]	741 nM
8.50	Cc1c(-c2cnn(-c3ccc(C(=O)N4CCN5CCC[C@@H]5C4)cn3)c2O)ccc(C#N)c1F [Example 334, (R)-2-fluoro-4-(5-hydroxy-1-(5-(octahydropyrrolo[1,2-a]pyrazine-2-carbonyl)pyridin-2-yl)-1H-pyrazol-4-yl)-3-methylbenzonitrile]	1380 nM
8.43	Cc1c(-c2cnn(-c3ccc(C(=O)N4CC(N5CCCCC5)C4)cn3)c2O)ccc(C#N)c1F [Example 335, 2-fluoro-4-(5-hydroxy-1-(5-(3-(piperidin-1-yl)azetidine-1-carbonyl)pyridin-2-yl)-1H-pyrazol-4-yl)-3-methylbenzonitrile]	1320 nM
8.53	Cc1c(-c2cnn(-c3ccc(C(=O)N4CCC[C@@H](N(C)CC(F)F)C4)cn3)c2O)ccc(C#N)c1F [Example 336, (R)-4-(1-(5-(3-((2,2-difluoroethyl)(methyl)amino)piperidine-1-carbonyl)pyridin-2-yl)-5-hydroxy-1H-pyrazol-4-yl)-2-fluoro-3-methylbenzonitrile]	977 nM
